Assay results taken from US6723897B2, “Methods for controlling gibberellin levels” (Monsanto Technology, LLC, priority 1998, dated 2004).

Assays:
[1] = Particulate material present in solutions after mixing; format: physicochemical; conditions: for Particulate material present, 100X Diln w/water: 0.25 mg/ml compound in water; for solubility in water during imbibition: 0.25 mg/ml treatment solutions; for Particulate material present, Initial Mixing: 25 mg/ml in absolute ethanol
Description: Each of the compounds noted above is weighed to the nearest 0.1 mg in a pre-tarred 1.5-ml polypropylene vial with a screw-top lid. Absolute ethanol is added to the weighed powder to prepare a 25 mg/ml solution. Solutions are thoroughly mixed using a vortex mixer. A stainless steel spatula is used to crush any particulate material remaining after extensive mixing. Vials are left overnight at room temperature, and then remixed to form the concentrated ethanol stock solutions. The presence of undissolved material is noted throughout this procedure.

[2] = system: constitutively GA-deficient transgenic dwarf soybean line 719; experiment: Experiment I greenhouse test, seed imbibition, GA-deficient soybean; format: in vivo, Glycine max; parameters: Observation on Transgenic Line 719: key: −1: treated plants are shorter as compared to untreated plants; 0: treated plants had the same stature as untreated plants; 1: treated plants are slightly elongated as compared to untreated plants; 2: treated plants are moderately elongated as compared to untreated plants; 3: treated plants are highly elongated as compared to untreated plants; 4: treated plants are extremely elongated as compared to untreated plants; conditions: 0.25 mg/ml; for effect in both the constitutive transgenic dwarf and wild-type soybean lines: imbibition, lines 719 and A3237; for Observation on Transgenic Line 719: seeds imbibed 5 hours
Excerpt: Seeds are covered with 0.5″ of vermiculite.

[3] = system: wild-type soybean line A3237; experiment: Experiment I greenhouse test, seed imbibition, wild-type soybean; conditions: 0.25 mg/ml; seeds imbibed 5 hours
Description: Compounds are first prepared as 25 mg/ml solutions in ethanol as described above, and then diluted into 40 ml of water to prepare the final 0.25 mg/ml treatment solutions. Visual observations on solubilities (milky, clear, etc.) of the treatment solutions are noted. The treatment solutions are divided into two 20 ml portions, each in 50 ml plastic centrifuge tubes. In addition to treating seeds with solutions containing the test compounds, untreated seeds and seeds imbibed in ethanol-water solution (300 μl ethanol in 30 mls of water) are also included in this experiment as controls. […]
(§1) After imbibition, seeds are removed from the test tubes, placed on wax paper to dry, and planted in bread pans containing farm soil amended with fertilizer at 20 seeds/pan. Seeds are covered with 0.5″ of vermiculite. Pans are transferred to the greenhouse, which had day/night temperatures of 86/68° F. (30/20° C.), and subirrigated. Illumination is at a light intensity of 300-400 μmolm^−2s^−1 photosynthetic photon flux; 16 hours light/8 hours dark. Subsequent waterings are also through sub-irrigation until the test is terminated three weeks later. Observations included the number of dwarf, intermediate, and tall plants; plant height; uniformity of rescue; and any visual effects.

[4] = system: constitutively GA-deficient transgenic dwarf soybeans (line 719); experiment: Summary of first two greenhouse experiments, rescue of GA-deficient soybeans; format: in vivo, Glycine max; parameters: key: +: transgenic soybeans are rescued; 0: transgenic soybeans are not rescued; conditions: 0.25 mg/ml solution (ethanol-water)
Description: (§2) Compounds are first prepared as 25 mg/ml solutions in ethanol as described above, and then diluted into 40 ml of water to prepare the final 0.25 mg/ml treatment solutions. Visual observations on solubilities (milky, clear, etc.) of the treatment solutions are noted. The treatment solutions are divided into two 20 ml portions, each in 50 ml plastic centrifuge tubes. In addition to treating seeds with solutions containing the test compounds, untreated seeds and seeds imbibed in ethanol-water solution (300 μl ethanol in 30 mls of water) are also included in this experiment as controls. In the latter case, 20 seeds are imbibed in 30 mls of solution for six hours.
as §1, with “Two soybean varieties are selected for testing: constitutively GA-deficient transgenic dwarf soybean line 719 (plasmid pMON29801, constitutive FMV promoter/asCPScc; which is a mixture of 719−2 and 719+17), and A3237, the wild-type parent material. […] After” for “After”
(§3) All compounds are tested at final concentrations of 0.25, 0.025, and 0.0025 mg/ml except for GA9, which is tested at 0.125, 0.0125, and 0.00125 mg/ml. (The compounds are tested in Experiment I at only one concentration, i.e., 0.25 mg/ml). Test tubes contained […] of ethanol solution per tube. Final volumes are made up to 30 ml with deionized water. After shaking, the treatment solutions (15 ml each) are transferred to each of two 50 ml test tubes. Treatments 1 to 27 are performed on wild-type line A3237; treatments 28 to 54 are performed on constitutively GA-deficient transgenic dwarf soybean line 719 (a mixture of 719−2 and 719+17). Twenty seeds are used in each treatment. Dry seed, ethanol/water-imbibed seed (1% ethanol in water, v/v), and water-imbibed seeds are included as controls. Seeds are imbibed for 6 hours in the test solutions, then planted in bread pans containing Metromix 350 (The Scotts Company, Marysville, Ohio), and covered with 0.5″ Metro-mix. Covered pans are transferred to the greenhouse and subirrigated. Illumination is at a light intensity of 300-400 μmolm^−2s^−1 photosynthetic photon flux; 16 hours light/8 hours dark. Subsequent waterings are also through sub-irrigation until the test is terminated three weeks later. Observations included the number of dwarf, intermediate, and tall plants; plant height; uniformity of rescue; and any visual effects. Digital photographs are also taken.

[5] = system: GA-deficient transgenic soybean line 719 (R5); experiment: Hilum treatment of soybean seeds, seedling growth and development, GA-deficient soybean; format: in vivo, Glycine max; parameters: key to Emergence timing / Hypocotyl length (6 DAP) / 1st internode length (12 DAP) / 3rd internode length (20 DAP) / 2nd internode length (12 DAP): pos: emergence faster/stem segment longer than controls; 0: emergence timing/stem segment length similar to controls; neg: emergence slower/stem segment shorter than controls; conditions: for Lowest rate where biological activity is observed, 1st internode length (10 DAP) / Lowest rate where biological activity is observed, emergence timing / Lowest rate where biological activity is observed, hypocotyl length (5 DAP) / 1st internode length (12 DAP) / Emergence timing / Hypocotyl length (6 DAP): L719, hilum treatment; for Lowest rate where biological activity is observed, 1st internode length (10 DAP) / Lowest rate where biological activity is observed, emergence timing / Lowest rate where biological activity is observed, hypocotyl length (5 DAP): rate response; for 1st internode length (12 DAP) / Emergence timing / Hypocotyl length (6 DAP): single rate per compound 8.3-16.5 μg/seed; for activity on line 719 in terms of emergence timing and hypocotyl length: single rate, hilum, concentration that does not affect normal plant tissue
Description: (§4) In the previous experiments, the effect of various GA compounds on transgenic, GA-deficient and wild-type soybean is evaluated by treating seeds with these compounds via imbibition. Several of these compounds are not completely soluble in water, which limited the interpretation of their utility in rescuing GA-deficient dwarf plants. The purpose of this experiment is to reevaluate selected, previously tested compounds, and additional compounds, by introducing them to the seed via the hilum. As shown by the results presented below, direct application of small quantities of GA compounds dissolved in an organic solvent to the hilum is an effective method of treating soybean seeds. As in the previously described experiments, comparison is made between activity on GA-deficient soybean seedlings and normal (wild-type) seedlings. […] soybean seeds are supplied by Asgrow Seed Company (Des Moines, Iowa). Seed of GA-deficient transgenic soybean line 719 is created by transformation of […] soybean with pMON29801 (FMV/antisense CPScc). Fifth generation seed (R5) is used for these experiments. […] When multiple droplets are applied, each 1 μl droplet is allowed to dry before subsequent droplets are added. Ethanol minus compound is used a treatment control. […] (29° C.) and 75° F. (24° C.), respectively. Emergence timing is measured by counting the number of emerged seedlings at different times after planting. Emergence is defined as the presence of cotyledons raised to soil level or above. […] To assess the ability of a seed treatment to deliver biological activity beyond the first internode, measurements are taken on selected treatments after prolonged growth and development.

wild-type A3237 soybean = experiment: Hilum treatment of soybean seeds, seedling growth and development, wild-type soybean; format: in vivo, Glycine max; parameters: key to Emergence timing / Hypocotyl length (6 DAP) / 1st internode length (12 DAP) / 3rd internode length (20 DAP): pos: emergence faster/stem segment longer than controls; 0: emergence timing/stem segment length similar to controls; neg: emergence slower/stem segment shorter than controls; conditions: for Lowest rate where biological activity is observed, 1st internode length (10 DAP) / Lowest rate where biological activity is observed, emergence timing / Lowest rate where biological activity is observed, hypocotyl length (5 DAP): rate response; for 1st internode length (12 DAP) / Emergence timing / Hypocotyl length (6 DAP): single rate per compound 8.3-16.5 μg/seed
Description: as §4

[6] = system: GA-deficient (Line 719, R5) soybeans; experiment: Hilum treatment with GA15, GA19, GA24, GA44, hypocotyl length, GA-deficient soybean; format: in vivo, Glycine max; conditions: 10 μg/seed, 5 DAP
Excerpt: Transgenic seeds are fifth generation (R5) line 719 seeds.

A3237 soybean = experiment: Stature of soybean plants with ancymidol soil drench; format: in vivo, Glycine max
Description: R1 lines are also evaluated for stature reduction, a key indicator of GA-deficiency in soybean. R1 seeds are grown as described above. Plant height is routinely measured at approximately one week after planting. Four lines (696, 719, 720 and 724) are identified that had overall stature reduction relative to the control (A3237) line and the control line plus ancymidol (10 mg/L), an inhibitor of GA (Table 3). As these are segregating from R1 seeds, the distribution stature of the plants is evaluated. Three lines (719, 720 and 724) have a population of strong dwarf soybean plants (<25% the height of the average control plant). The segregation ratio of R1 pMON29801 (FMV/asCPScc) (FIG. 7) soybean plants is checked by phenotype (stature) and for the expression of CP4 5-enolpyruvylshikimate-3-phosphate synthase by ELISA (Rogan et al., J. Food Control, in Press (1998)). The results for both of these analyses are fairly consistent (Table 4): Line 696 segregated at about 1:3, line 719 at about 1:2, line 720 at about 2:1 and line 724 at about 3:1. Thus, only line 724 is what could be considered normal Mendelian segregation.
In soybean, GAs increase through mid-seed development, and then decline as the seed matures (Birnberg et al. (1986) Plant Physiol. 82:241-246). This trend is similar to that observed in other legumes. […] This is supported by the following observations (data not shown). […] This is well after germination and axis elongation have begun. Both of these observations support the hypothesis that soybean seed germination and early axis elongation are not dependent on de novo gibberellin biosynthesis.

[7] = system: wild-type soybeans (line A3237); experiment: Summary of first two greenhouse experiments, elongation of wild-type soybeans; conditions: 0.25 mg/ml solution (ethanol-water)
Description: as §2
as §1, with “Two soybean varieties are selected for testing: constitutively GA-deficient transgenic dwarf soybean line 719 (plasmid pMON29801, constitutive FMV promoter/asCPScc; which is a mixture of 719−2 and 719+17), and A3237, the wild-type parent material. […] After” for “After”
as §3

Row | Compound | Particulate material present, 100X Diln w/water [1] | solubility in water during imbibition [1] | Particulate material present, Initial Mixing [1] | effect in both the constitutive transgenic dwarf and wild-type soybean lines [2] | Observation on Transgenic Line 719 [2] | Observation on Wild-Type Line A3237 [3] | Rescue of GA-deficient soybeans [4] | Lowest rate where biological activity is observed, 1st internode length (10 DAP) [5] | Lowest rate where biological activity is observed, emergence timing [5] | Lowest rate where biological activity is observed, hypocotyl length (5 DAP) [5] | 1st internode length (12 DAP) [5] | Emergence timing [5] | Hypocotyl length (6 DAP) [5] | activity on line 719 in terms of emergence timing and hypocotyl length [5] | Lowest rate where biological activity is observed, 1st internode length (10 DAP) (wild-type A3237 soybean) | Lowest rate where biological activity is observed, emergence timing (wild-type A3237 soybean) | Lowest rate where biological activity is observed, hypocotyl length (5 DAP) (wild-type A3237 soybean) | 1st internode length (12 DAP) (wild-type A3237 soybean) | Emergence timing (wild-type A3237 soybean) | Hypocotyl length (6 DAP) (wild-type A3237 soybean) | other results
1 | C=C1C[C@@]23CC[C@H]4[C@@](C)(CCC[C@@]4(C)C(=O)O)[C@@H]2CC[C@]1(O)C3 (single isomer, unassigned; ent-7) [steviol] | YES | less soluble in water during imbibition | YES | no substantial activity | 0 | 0 | 0 | >100 μg/seed | 10 μg/seed | 1 μg/seed | 0 | pos | pos | biologically active | >100 μg/seed | >100 μg/seed | >100 μg/seed | 0 | 0 | 0 | –
2 | GA15 | – | – | – | – | – | – | – | – | – | – | – | – | – | – | – | – | – | – | – | – | hypocotyl height of GA-deficient (Line 719) soybeans (FIG. 41) [6]: restored normal or greater hypocotyl height
3 | COc1ccc(C(O)(c2cncnc2)C2CC2)cc1 (centres unmarked) [ancymidol] | – | – | – | – | – | – | – | – | – | – | – | – | – | – | – | – | – | – | – | – | Height (% of control) (A3237 soybean; 7 DAP, ancymidol 10 mg/L): 14 % of control; Frequency of heights relative to A3237 control (%), 0-25% (A3237 soybean; ancymidol soil drench 10 mg/L): 100%; Frequency of heights relative to A3237 control (%), 25-50% (A3237 soybean; ancymidol soil drench 10 mg/L): 0%; Frequency of heights relative to A3237 control (%), 50-75% (A3237 soybean; ancymidol soil drench 10 mg/L): 0%; Frequency of heights relative to A3237 control (%), 75-100% (A3237 soybean; ancymidol soil drench 10 mg/L): 0%; soybean axis elongation (A3237 soybean; first one to two days of growth, data not shown): does not reduce soybean axis elongation
4 | C=C1C[C@]23C[C@H]1CC[C@H]2[C@]1(C=O)CCC[C@@](C)(C(=O)O)[C@H]1[C@@H]3C(=O)O [GA24] | – | – | – | – | – | – | – | – | – | – | – | – | – | – | – | – | – | – | – | – | hypocotyl height of GA-deficient (Line 719) soybeans (FIG. 41) [6]: restored normal or greater hypocotyl height
5 | C=C1C[C@@]23CC[C@@H]4C(C)(C)CCC[C@@]4(C)[C@@H]2CC[C@@H]1C3 [kaurene] | YES | less soluble in water during imbibition | YES | no substantial activity | 0 | 0 | 0 | – | – | – | 0 | pos | 0 | – | – | – | – | 0 | 0 | 0 | Particulate material present, O/N Incubation ([1]; 25 mg/ml in ethanol, overnight at room temperature, remixed): YES; Elongation of wild-type soybeans [7]: 0
6 | C=C1C[C@]23C[C@H]1CC[C@H]2[C@]1(C)CCC[C@@](C)(C(=O)O)[C@H]1[C@@H]3C=O [GA12-aldehyde] | YES | less soluble in water during imbibition | – | no substantial activity | 0 | 0 | 0 | >100 μg/seed | 1 μg/seed | 1 μg/seed | 0 | pos | pos | biologically active | >100 μg/seed | >100 μg/seed | >100 μg/seed | 0 | 0 | 0 | –
